Measurements as given in article PMC7347136 (PLoS ONE, 2020).
Like-named read-outs stand apart in the source and are kept apart here.

Assays:
H23 = assay: Resazurin reduction cell viability assay; assay type: cell-based, human; details: 6 h pulse
MDA-MB-468 = assay: Resazurin reduction cell viability assay; assay type: cell-based; details: Homo sapiens
Experimental: (§1) Solid tumor cell lines were seeded in 100 μl medium into 96-well plates at an appropriate cell number determined by a cell dilution assay (Cal51–2000 cells/well; Colo205, MCF10A and 184A1–3000 cells/well and MDA-MB-468, HCC1954–4000 cells/well). AML suspension cells were seeded in 96-well plates at approximately 3000 cells per well. Cells were incubated overnight at 37°C, 5% CO2. The following day, 100 μl fresh medium containing increasing concentrations of appropriate compound was added and the cells were incubated for up to 72 h at 37°C, 5% CO2. For pulse treatment of solid (adherent) tumor cell lines, medium was aspirated and replaced with fresh drug-free medium. For pulse treatment of suspension lines, plates were centrifuged at 478 xg for 5 min at the end of the incubation period with compound, medium containing compound was carefully aspirated and replaced with fresh compound-free medium. A total of 72 h after the start of treatment, 20 μl of a 10X stock of resazurin sodium salt (Sigma-Aldrich, Dorset, UK) prepared in medium was added to the cells and incubated for up to 3 h. […] was measured on the Wallac Victor plate reader (Cambridge, UK) at 544–595 nm. IC50/70/90 calculations were determined in XLFit.

Nomo-1 = assay: Resazurin reduction cell viability assay; assay type: cell-based; details: Homo sapiens
Experimental: as §1

HCC1954 = assay: Resazurin reduction cell viability assay; assay type: cell-based; details: Homo sapiens
Experimental: as §1

ML-2 = assay: Resazurin reduction cell viability assay; assay type: cell-based; details: Homo sapiens
Experimental: as §1

Cal51 = assay: Resazurin reduction cell viability assay; assay type: cell-based; details: Homo sapiens
Experimental: as §1

Kasumi-1 = assay: Resazurin reduction cell viability assay; assay type: cell-based; details: Homo sapiens
Experimental: as §1

HL60 = assay: Resazurin reduction cell viability assay; assay type: cell-based; details: Homo sapiens
Experimental: as §1

EOL-1 = assay: Resazurin reduction cell viability assay; assay type: cell-based; details: Homo sapiens
Experimental: as §1

MCL1 = system: MCL1; set-up: method as in earlier work; details: patient PBMCs; recommended phase 2 dose; cited from earlier work
OCI-AML2 = assay: Resazurin reduction cell viability assay; assay type: cell-based, human
Experimental: as §1

Colo205 = assay: Resazurin reduction cell viability assay; assay type: cell-based, human; details: Homo sapiens, COLO 205, 72 h, 72 h continuous treatment; read-out: Colo205 IC50 ± SD
Experimental: as §1

KG-1 = assay: Resazurin reduction cell viability assay; assay type: cell-based, human
Experimental: as §1

PL21 = assay: Resazurin reduction cell viability assay; assay type: cell-based, human
Experimental: as §1

CDK4/cyclin D3 = target: T1, CDK4/cyclin D3 (Homo sapiens, UniProt P11802); assay: Kinase assay with recombinant CDK/cyclins (Cyclacel); assay type: biochemical
T1 construct: made in house
T1 sequence (P11802 whole entry): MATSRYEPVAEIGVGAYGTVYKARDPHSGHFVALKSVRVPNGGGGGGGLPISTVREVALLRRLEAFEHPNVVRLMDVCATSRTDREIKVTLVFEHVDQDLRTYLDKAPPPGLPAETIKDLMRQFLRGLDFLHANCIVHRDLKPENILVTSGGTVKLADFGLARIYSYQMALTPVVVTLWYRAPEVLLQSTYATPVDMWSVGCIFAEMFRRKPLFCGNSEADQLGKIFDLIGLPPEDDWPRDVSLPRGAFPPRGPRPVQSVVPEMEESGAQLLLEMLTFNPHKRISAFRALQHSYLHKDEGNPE
T1 sequence (P30281 whole entry partner): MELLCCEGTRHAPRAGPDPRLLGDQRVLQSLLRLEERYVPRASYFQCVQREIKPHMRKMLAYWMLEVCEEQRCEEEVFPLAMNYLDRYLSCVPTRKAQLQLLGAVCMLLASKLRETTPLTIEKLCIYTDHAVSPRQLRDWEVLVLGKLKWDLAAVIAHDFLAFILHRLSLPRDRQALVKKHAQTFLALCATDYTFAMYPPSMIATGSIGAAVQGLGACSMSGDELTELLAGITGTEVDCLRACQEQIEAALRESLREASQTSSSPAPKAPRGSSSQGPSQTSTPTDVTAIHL
Experimental: (§2) Kinase assays for CDK2, CDK4, CDK7 and CDK9 were carried out as described previously using recombinant CDK/cyclins generated at Cyclacel Ltd, Dundee, UK [29, 34, 35].

CDK7/cyclin H1/MAT1 = target: T2, CDK7/cyclin H1/MAT1 (Homo sapiens, UniProt P50613); assay: as above; assay type: biochemical
T2 construct: purchased Carna Biosciences
T2 sequence (P50613 whole entry): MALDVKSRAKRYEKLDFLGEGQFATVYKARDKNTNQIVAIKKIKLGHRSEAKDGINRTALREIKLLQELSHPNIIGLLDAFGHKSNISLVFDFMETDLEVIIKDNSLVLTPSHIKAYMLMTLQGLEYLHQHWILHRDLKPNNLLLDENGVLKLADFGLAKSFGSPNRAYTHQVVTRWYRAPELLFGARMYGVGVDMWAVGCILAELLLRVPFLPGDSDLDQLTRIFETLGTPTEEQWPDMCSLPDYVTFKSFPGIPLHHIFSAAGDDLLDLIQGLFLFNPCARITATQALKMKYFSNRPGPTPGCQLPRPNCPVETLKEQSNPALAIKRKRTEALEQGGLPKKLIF
T2 sequence (P51946 whole entry partner): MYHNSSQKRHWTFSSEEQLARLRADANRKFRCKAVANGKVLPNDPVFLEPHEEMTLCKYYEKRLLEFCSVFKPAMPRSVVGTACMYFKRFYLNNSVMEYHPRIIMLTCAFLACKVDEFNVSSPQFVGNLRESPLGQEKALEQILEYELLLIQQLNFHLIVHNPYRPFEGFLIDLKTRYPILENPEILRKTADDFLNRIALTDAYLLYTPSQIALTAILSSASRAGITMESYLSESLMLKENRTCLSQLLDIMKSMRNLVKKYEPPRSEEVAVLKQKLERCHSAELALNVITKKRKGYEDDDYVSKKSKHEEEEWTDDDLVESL
T2 sequence (P51948 whole entry partner): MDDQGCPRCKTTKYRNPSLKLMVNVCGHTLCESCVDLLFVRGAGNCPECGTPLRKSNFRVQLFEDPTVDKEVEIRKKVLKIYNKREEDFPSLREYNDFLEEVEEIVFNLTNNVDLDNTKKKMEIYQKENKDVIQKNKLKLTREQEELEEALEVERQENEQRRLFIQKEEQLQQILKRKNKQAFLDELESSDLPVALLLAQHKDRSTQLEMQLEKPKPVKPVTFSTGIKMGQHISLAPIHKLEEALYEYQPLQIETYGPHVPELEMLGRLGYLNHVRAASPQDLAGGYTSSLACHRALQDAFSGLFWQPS
Experimental: as §2

CDK2/cyclin E = target: T3, CDK2/cyclin E (Homo sapiens, UniProt P24941); assay: as above; assay type: biochemical
T3 construct: made in house
Experimental: as §2

subcutaneous HL60 tumors = assay: HL-60 human promyelocytic leukemia xenograft model; assay type: in vivo, athymic NCr-nu/nu mice
Description: Five-week-old female athymic NCr-nu/nu mice were purchased from Harlan Sprague-Dawley (Prattville, AL). The animals were housed in microisolator cages, with up to five animals per cage in a 12-h light/dark cycle. The animals received filtered water and sterilized rodent diet (Harlan-Teklad TD8656) ad libitum. Each mouse was implanted subcutaneously near the right flank with ten million HL-60 cells using a 23-gauge needle and allowed to grow. Tumors were allowed to reach 75–144 mm^3 in size before treatment initiation. […] The %TGI values were calculated and statistical analyses performed as above.

[1] = 72 h continuous, read-out: 72 h continuous IC50 ± SD
[2] = read-out: 6 h pulse IC50 ± SD, 6 h pulse then 66 h release

SMILES: CC[C@H](Nc1nc(NCc2cnc(C)cc2C)c2ncn(C(C)C)c2n1)[C@@H](C)O [Fadraciclib, 2-pentanol, 3-[[6-[[(4,6-dimethyl-3-pyridinyl)methyl]amino]-9-(1-methylethyl)-9Hpurin-2-yl]amino]-, (2R,3S)]
- IC50, short pulse (H23): submicromolar
- IC50 (MDA-MB-468; read-out: 8 h pulse IC50 ± SD, MDA-MB-468 (TNBC), 8 h pulse, read at 72 h): 990 ± 340 nM
- IC50 (MDA-MB-468; MDA-MB-468, continuous 72 h, read-out: continuous IC50 ± SD): 380 ± 170 nM
- IC90 (Nomo-1; 6 h pulse then 66 h release): 1800 nM
- IC50 (Nomo-1; [1]): 290 ± 50 nM
- IC50 (Nomo-1; [2]): 660 ± 110 nM
- IC50 (HCC1954; read-out: 8 h pulse IC50 ± SD, HCC1954 (HER2 amplified), 8 h pulse, read at 72 h): 480 ± 50 nM
- IC50 (HCC1954; HCC1954, continuous 72 h, read-out: continuous IC50 ± SD): 400 ± 30 nM
- IC90 (ML-2; 6 h pulse then 66 h release): 590 nM
- IC50 (ML-2; [1]): 190 ± 50 nM
- IC50 (ML-2; [2]): 330 ± 120 nM
- IC50 (Cal51; CAL-51, read-out: 8 h pulse IC50 ± SD, Cal51 (TNBC), 8 h pulse, read at 72 h): 680 ± 200 nM
- IC50 (Cal51; CAL-51, Cal51, continuous 72 h, read-out: continuous IC50 ± SD): 230 ± 40 nM
- IC90 (Kasumi-1; 6 h pulse then 66 h release): 570 nM
- IC50 (Kasumi-1; [1]): 230 ± 40 nM
- IC50 (Kasumi-1; [2]): 320 ± 50 nM
- IC90 (HL60; HL-60, 6 h pulse then 66 h release): 1600 nM
- IC50 (HL60; HL-60, 72 h continuous, read-out: 72 h continuous IC50 ± SD): 440 ± 70 nM
- IC50 (HL60; HL-60, read-out: 6 h pulse IC50 ± SD, 6 h pulse then 66 h release): 790 ± 140 nM
- IC90 (EOL-1; EOL1, 6 h pulse then 66 h release): 560 nM
- IC50 (EOL-1; EOL1, 72 h continuous, read-out: 72 h continuous IC50 ± SD): 370 ± 50 nM
- IC50 (EOL-1; EOL1, read-out: 6 h pulse IC50 ± SD, 6 h pulse then 66 h release): 350 ± 50 nM
- duration of MCL1 suppression (MCL1): > 24 h
- IC50 (OCI-AML2; Homo sapiens, OCI-AML2, 72 h, OCI-AML2, 72 h continuous, read-out: 72 h continuous IC50 ± SD): 220 ± 30 nM
- IC50 (OCI-AML2; Homo sapiens, OCI-AML2, read-out: 6 h pulse IC50 ± SD, OCI-AML2, 6 h pulse then 66 h release): 530 nM
- IC90 (OCI-AML2; Homo sapiens, OCI-AML2, 6 h pulse then 66 h release): 1800 nM
- IC50 (OCI-AML2; read-out: 6 h pulse IC50 ± SD, OCI-AML2, 6 h pulse then 66 h release): 550 ± 70 nM
- IC50 (Colo205): 310 nM
- IC50 (KG-1; Homo sapiens, KG-1, 72 h, KG-1, 72 h continuous, read-out: 72 h continuous IC50 ± SD): 350 ± 30 nM
- IC50 (KG-1; Homo sapiens, KG-1, read-out: 6 h pulse IC50 ± SD, KG-1, 6 h pulse then 66 h release): 500 nM
- IC90 (KG-1; Homo sapiens, KG-1, 6 h pulse then 66 h release): 3700 nM
- IC50 (KG-1; read-out: 6 h pulse IC50 ± SD, KG-1, 6 h pulse then 66 h release): 470 ± 120 nM
- IC50 (PL21; Homo sapiens, PL-21, 72 h, PL21, 72 h continuous, read-out: 72 h continuous IC50 ± SD): 340 ± 90 nM
- IC90 (PL21; Homo sapiens, PL-21, PL21, 6 h pulse then 66 h release): 9920 nM
- IC50 (PL21; Homo sapiens, PL-21, read-out: 6 h pulse IC50 ± SD, PL21, 6 h pulse then 66 h release): 2550 nM
- IC50 (PL21; read-out: 6 h pulse IC50 ± SD, PL21, 6 h pulse then 66 h release): 2540 ± 2710 nM
- IC50 (CDK4/cyclin D3): > 10000 nM
- IC50 (CDK7/cyclin H1/MAT1): 730 ± 160 nM
- IC50 (CDK2/cyclin E): 20 ± 1 nM
- mean body weight loss (subcutaneous HL60 tumors; 70 mg/kg oral (highest dose)): 8%
- tumor growth delay T-C (subcutaneous HL60 tumors; 70 mg/kg oral, 5 days on/2 days off, 2 cycles): > 12.6 days
- TGI (subcutaneous HL60 tumors; 70 mg/kg oral, Day 11): 90%
- tumor regression (subcutaneous HL60 tumors; 70 mg/kg oral, groups of 10 animals): Two animals achieved tumor regression and one was determined to be tumor-free
